From PubChem BioAssay (NCI)
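Method: 48-hour compound exposure of cells in 96-well plates, five concentrations, linear interpolation of endpoints. At the GI50, growth is halved. TGI is the concentration that stops growth completely.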

Tests used:
Experiment in all cases: inhibition of tumour cell growth, NCI panel, 48 h
786-0 renal = tested on: 786-0 renal
A498 renal = tested on: A498 renal
A549 NSCLC = tested on: A549 NSCLC
ACHN renal = tested on: ACHN renal
BT-549 breast = tested on: BT-549 breast
CAKI-1 renal = tested on: CAKI-1 renal
CCRF-CEM leukemia = tested on: CCRF-CEM leukemia
COLO 205 colon = tested on: COLO 205 colon
DU-145 prostate = tested on: DU-145 prostate
EKVX NSCLC = tested on: EKVX NSCLC
HCC-2998 colon = tested on: HCC-2998 colon
HCT-116 colon = tested on: HCT-116 colon
HCT-15 colon = tested on: HCT-15 colon
HL-60(TB) leukemia = tested on: HL-60(TB) leukemia
HOP-62 NSCLC = tested on: HOP-62 NSCLC
HOP-92 NSCLC = tested on: HOP-92 NSCLC
HS 578T breast = tested on: HS 578T breast
HT29 colon = tested on: HT29 colon
IGROV1 ovarian = tested on: IGROV1 ovarian
K-562 leukemia = tested on: K-562 leukemia
KM12 colon = tested on: KM12 colon
LOX IMVI melanoma = tested on: LOX IMVI melanoma
M14 melanoma = tested on: M14 melanoma
MALME-3M melanoma = tested on: MALME-3M melanoma
MCF7 breast = tested on: MCF7 breast
MDA-MB-231 breast = tested on: MDA-MB-231 breast
MDA-MB-435 = tested on: MDA-MB-435
MOLT-4 leukemia = tested on: MOLT-4 leukemia
NCI-H226 lung = tested on: NCI-H226 lung
NCI-H23 lung = tested on: NCI-H23 lung
NCI-H460 lung = tested on: NCI-H460 lung
NCI-H522 lung = tested on: NCI-H522 lung
NCI/ADR-RES ovarian = tested on: NCI/ADR-RES ovarian
OVCAR-3 ovarian = tested on: OVCAR-3 ovarian
OVCAR-4 ovarian = tested on: OVCAR-4 ovarian
OVCAR-5 ovarian = tested on: OVCAR-5 ovarian
OVCAR-8 ovarian = tested on: OVCAR-8 ovarian
PC-3 prostate = tested on: PC-3 prostate
RPMI-8226 leukemia = tested on: RPMI-8226 leukemia
RXF 393 renal = tested on: RXF 393 renal
SF-268 CNS = tested on: SF-268 CNS
SF-295 CNS = tested on: SF-295 CNS
SF-539 CNS = tested on: SF-539 CNS
SK-MEL-2 melanoma = tested on: SK-MEL-2 melanoma
SK-MEL-28 melanoma = tested on: SK-MEL-28 melanoma
SK-MEL-5 melanoma = tested on: SK-MEL-5 melanoma
SK-OV-3 ovarian = tested on: SK-OV-3 ovarian
SN12C renal = tested on: SN12C renal
SNB-19 CNS = tested on: SNB-19 CNS
SNB-75 CNS = tested on: SNB-75 CNS
SR leukemia = tested on: SR leukemia
SW-620 colon = tested on: SW-620 colon
T-47D breast = tested on: T-47D breast
U251 CNS = tested on: U251 CNS
UACC-257 melanoma = tested on: UACC-257 melanoma
UACC-62 melanoma = tested on: UACC-62 melanoma
UO-31 renal = tested on: UO-31 renal

## C[Se]C(=O)CC1=C2C=C(F)C=CC2/C(=C\c2ccc(S(C)=O)cc2)C1C (centres undefined)
786-0 renal
  GI50: 207 nM
  TGI: 1710 nM
A498 renal
  GI50: 42.2 nM
  TGI: 192 nM
A549 NSCLC
  GI50: 25.7 nM
  TGI: 2660 nM
ACHN renal
  GI50: 154 nM
  TGI: 3070 nM
BT-549 breast
  GI50: 58.1 nM
  TGI: 266 nM
CAKI-1 renal
  GI50: 25.3 nM
  TGI: 478 nM
CCRF-CEM leukemia
  GI50: 208 nM
  TGI: > 20600 nM
COLO 205 colon
  GI50: 1250 nM
  TGI: 6360 nM
DU-145 prostate
  GI50: 18.7 nM
  TGI: 1160 nM
EKVX NSCLC
  GI50: < 11.3 nM
  TGI: 96.7 nM
HCC-2998 colon
  GI50: 1630 nM
  TGI: 6790 nM
HCT-116 colon
  GI50: 119 nM
  TGI: 1640 nM
HCT-15 colon
  GI50: 46.1 nM
  TGI: 1210 nM
HL-60(TB) leukemia
  GI50: 416 nM
  TGI: 2410 nM
HOP-62 NSCLC
  GI50: < 10 nM
  TGI: 331 nM
HOP-92 NSCLC
  GI50: 165 nM
  TGI: 417 nM
HS 578T breast
  GI50: 88.6 nM
  TGI: 2360 nM
HT29 colon
  GI50: < 31.8 nM
  TGI: > 100000 nM
IGROV1 ovarian
  GI50: 97.2 nM
  TGI: 3170 nM
K-562 leukemia
  GI50: 1360 nM
  TGI: > 100000 nM
KM12 colon
  GI50: 85.3 nM
  TGI: 3250 nM
LOX IMVI melanoma
  GI50: 14.1 nM
  TGI: 29.6 nM
M14 melanoma
  GI50: 38.7 nM
  TGI: 1520 nM
MALME-3M melanoma
  GI50: 156 nM
  TGI: 400 nM
MCF7 breast
  GI50: 152 nM
  TGI: 10400 nM
MDA-MB-231 breast
  GI50: 42.7 nM
  TGI: 327 nM
MDA-MB-435
  GI50: < 11.7 nM
  TGI: 362 nM
MOLT-4 leukemia
  GI50: 392 nM
  TGI: > 100000 nM
NCI-H226 lung
  GI50: < 16.4 nM
  TGI: 317 nM
NCI-H23 lung
  GI50: 65 nM
  TGI: 1030 nM
NCI-H460 lung
  GI50: < 10 nM
  TGI: 526 nM
NCI-H522 lung
  GI50: 404 nM
  TGI: 2920 nM
NCI/ADR-RES ovarian
  GI50: 77.6 nM
  TGI: 3960 nM
OVCAR-3 ovarian
  GI50: 33.6 nM
  TGI: 260 nM
OVCAR-4 ovarian
  GI50: 131 nM
  TGI: 7050 nM
OVCAR-5 ovarian
  GI50: 114 nM
  TGI: 1490 nM
OVCAR-8 ovarian
  GI50: 44.7 nM
  TGI: > 100000 nM
PC-3 prostate
  GI50: 174 nM
  TGI: 1950 nM
RPMI-8226 leukemia
  GI50: 2310 nM
  TGI: 6150 nM
RXF 393 renal
  GI50: 28.9 nM
  TGI: 800 nM
SF-268 CNS
  GI50: < 10 nM
  TGI: 24.2 nM
SF-295 CNS
  GI50: < 15.6 nM
  TGI: 46.5 nM
SF-539 CNS
  GI50: 37.1 nM
  TGI: 92.3 nM
SK-MEL-2 melanoma
  GI50: 432 nM
  TGI: 3040 nM
SK-MEL-28 melanoma
  GI50: 34.3 nM
  TGI: 891 nM
SK-MEL-5 melanoma
  GI50: 111 nM
  TGI: 266 nM
SK-OV-3 ovarian
  GI50: 49.3 nM
  TGI: 1580 nM
SN12C renal
  GI50: 40.1 nM
  TGI: 1340 nM
SNB-19 CNS
  GI50: 223 nM
  TGI: 767 nM
SNB-75 CNS
  GI50: < 10 nM
  TGI: < 36 nM
SR leukemia
  GI50: 1170 nM
  TGI: > 100000 nM
SW-620 colon
  GI50: 273 nM
  TGI: 3250 nM
T-47D breast
  GI50: 2940 nM
  TGI: > 34000 nM
U251 CNS
  GI50: < 18.1 nM
  TGI: 1430 nM
UACC-257 melanoma
  GI50: 87.5 nM
  TGI: 2420 nM
UACC-62 melanoma
  GI50: 410 nM
  TGI: 2300 nM
UO-31 renal
  GI50: 36 nM
  TGI: 179 nM
